Data taken from PubChem BioAssay AID330 (DTP/NCI, 2004).
“And” between values parts separate entries of the source, which are not always exact repeats. Equal entries are not always repeated. Inconclusive results and toxic doses are left out. How the source made its calls: active means survival T/C of 150% or more; inactive means T/C below 125% in these data.

Tested on: P388 leukemia ip, CD2F1 mice, survival T/C
Assay: NCI In Vivo Anticancer Drug Screen. Data for tumor model P388 Leukemia (intraperitoneal) in CD2F1 (CDF1) mice
Settings: endpoint: median survival time, higher = longer survival
Procedure, shortened: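 Mice carrying the transplanted tumor received test compound or vehicle. Survival was recorded in each group, and the value is the treated-group measurement divided by that of the vehicle-treated control group.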

[1] = dose: 50.0 mg/kg/injection, schedule: Q01DX005 (ip), vehicle: Klucel (hydroxypropylcellulose) (HPC)
[2] = dose: 100.0 mg/kg/injection, schedule: Q01DX005 (ip), vehicle: Klucel (hydroxypropylcellulose) (HPC)
[3] = dose: 200.0 mg/kg/injection, schedule: Q01DX005 (ip), vehicle: Klucel (hydroxypropylcellulose) (HPC)
[4] = dose: 100.0 mg/kg/injection, schedule: Q01DX001 (ip), vehicle: saline
[5] = dose: 200.0 mg/kg/injection, schedule: Q01DX001 (ip), vehicle: saline
[6] = dose: 400.0 mg/kg/injection, schedule: Q01DX001 (ip), vehicle: saline
[7] = dose: 6.25 mg/kg/injection, schedule: Q01DX009 (ip), vehicle: saline with Tween-80
[8] = dose: 12.5 mg/kg/injection, schedule: Q01DX009 (ip), vehicle: saline with Tween-80
[9] = dose: 25.0 mg/kg/injection, schedule: Q01DX009 (ip), vehicle: saline with Tween-80
[10] = dose: 50.0 mg/kg/injection, schedule: Q01DX009 (ip), vehicle: saline with Tween-80
[11] = dose: 100.0 mg/kg/injection, schedule: Q04DX003 (ip), vehicle: saline
[12] = dose: 200.0 mg/kg/injection, schedule: Q04DX003 (ip), vehicle: saline
[13] = dose: 400.0 mg/kg/injection, schedule: Q04DX003 (ip), vehicle: saline
[14] = dose: 50.0 mg/kg/injection, schedule: Q01DX005 (ip), vehicle: saline
[15] = dose: 100.0 mg/kg/injection, schedule: Q01DX005 (ip), vehicle: saline
[16] = dose: 200.0 mg/kg/injection, schedule: Q01DX005 (ip), vehicle: saline

Measured: T/C

CC1C(=O)OC(C(O)C(C)(O)C2C(O)CC3C4CC5OC56C(O)C=CC(=O)C6(C)C4CCC32C)C1C (configuration not stated)
inactive: dose: 1.25 mg/kg/injection, schedule: Q01DX009 (ip), vehicle: Klucel (hydroxypropylcellulose) (HPC) 108 % of control | dose: 2.5 mg/kg/injection, schedule: Q01DX009 (ip), vehicle: Klucel (hydroxypropylcellulose) (HPC) 103 % of control | dose: 5.0 mg/kg/injection, schedule: Q01DX009 (ip), vehicle: Klucel (hydroxypropylcellulose) (HPC) 105 % of control | dose: 10.0 mg/kg/injection, schedule: Q01DX009 (ip), vehicle: Klucel (hydroxypropylcellulose) (HPC) 108 % of control

C=C(C)C(=O)OC1C(C(C)CCCO)=C(CO)CC2OC(=O)C(=C)C21 (configuration not stated)
inactive: dose: 3.12 mg/kg/injection, schedule: Q01DX009 (ip), vehicle: saline + alcohol 108 % of control | dose: 6.25 mg/kg/injection, schedule: Q01DX009 (ip), vehicle: saline + alcohol 112 % of control | dose: 12.5 mg/kg/injection, schedule: Q01DX009 (ip), vehicle: saline + alcohol 118 % of control | dose: 25.0 mg/kg/injection, schedule: Q01DX009 (ip), vehicle: saline + alcohol 111 % of control

N#C/C(=C/C=C/c1ccccc1)c1ccccc1
inactive: [1] 109 % of control | [2] 102 % of control | [3] 104 % of control

O=C1CCC(C(=O)O)C(C(=O)O)C1 (configuration not stated)
inactive: dose: 50.0 mg/kg/injection, schedule: Q01DX001 (ip), vehicle: saline 107 % of control | [4] 100 % of control | [5] 101 % of control | [6] 107 % of control

OC(c1cc(-c2ccc(C(F)(F)F)cc2)nc(-c2ccc(C(F)(F)F)cc2)c1)C1CCCCN1 (configuration not stated)
inactive: [7] 109 % of control | [8] 107 % of control | [9] 89 % of control

CN(C)S(=O)(=O)c1ccccc1N=C=S
inactive: [10] 117 % of control | dose: 100.0 mg/kg/injection, schedule: Q01DX009 (ip), vehicle: saline with Tween-80 117 % of control

C=C1CC2(CC(C(=C)C)CC=C2C)OC1=O (configuration not stated)
inactive: [4] 101 % of control | [5] 104 % of control | [6] 109 % of control

CCOC(=O)NC
inactive: [11] 104 % of control | [12] 100 % of control | [13] 104 % of control

O=C(OCc1ccccc1)c1ccc(=O)oc1
inactive: dose: 100.0 mg/kg/injection, schedule: Q04DX003 (ip), vehicle: Klucel (hydroxypropylcellulose) (HPC) 114 % of control | dose: 200.0 mg/kg/injection, schedule: Q04DX003 (ip), vehicle: Klucel (hydroxypropylcellulose) (HPC) 110 % of control

CC(=O)Nc1ccc(OCC(O)CNC(C)C)c(C(C)=O)c1 (configuration not stated)
inactive: dose: 50.0 mg/kg/injection, schedule: Q01DX009 (ip), vehicle: saline 101 % of control | dose: 100.0 mg/kg/injection, schedule: Q01DX009 (ip), vehicle: saline 92 % of control | dose: 200.0 mg/kg/injection, schedule: Q01DX009 (ip), vehicle: saline 97 % of control

O=C/C=C/c1ccc2c(c1)OC(CO)C(c1ccc(O)c(O)c1)O2 (configuration not stated)
inactive: dose: 3.12 mg/kg/injection, schedule: Q01DX005 (ip), vehicle: Klucel (hydroxypropylcellulose) (HPC) 86 % of control | dose: 6.25 mg/kg/injection, schedule: Q01DX005 (ip), vehicle: Klucel (hydroxypropylcellulose) (HPC) 91 % of control

COc1ccc(/C=C2/Oc3c(Br)c(OC)cc(OC)c3C2=O)cc1
inactive: dose: 25.0 mg/kg/injection, schedule: Q01DX005 (ip), vehicle: Klucel (hydroxypropylcellulose) (HPC) 98 % of control | [1] 98 % of control | [2] 96 % of control | [3] 97 % of control

O=C(N=C1C(=O)C2(CCCCC2)C2(N=C(c3ccccc3)OC2=O)C12CCCCC2)c1ccccc1 (configuration not stated)
inactive: dose: 60.0 mg/kg/injection, schedule: Q01DX005 (ip), vehicle: saline with Tween-80 107 % of control | dose: 120.0 mg/kg/injection, schedule: Q01DX005 (ip), vehicle: saline with Tween-80 100 % of control | dose: 240.0 mg/kg/injection, schedule: Q01DX005 (ip), vehicle: saline with Tween-80 100 % of control

Cc1cc2c(C(C)C)c(O)c(O)cc2c(O)c1-c1c(C)cc2c(C(C)C)c(O)c(O)cc2c1O
inactive: dose: 12.5 mg/kg/injection, schedule: Q04DX003 (ip), vehicle: saline with Tween-80 95 % of control | dose: 25.0 mg/kg/injection, schedule: Q04DX003 (ip), vehicle: saline with Tween-80 100 % of control | dose: 50.0 mg/kg/injection, schedule: Q04DX003 (ip), vehicle: saline with Tween-80 104 % of control

CC(Cc1ccccc1)C(=O)Nc1ccccc1 (configuration not stated)
inactive: dose: 100.0 mg/kg/injection, schedule: Q04DX002 (ip), vehicle: saline with Tween-80 91 % of control | dose: 200.0 mg/kg/injection, schedule: Q04DX002 (ip), vehicle: saline with Tween-80 94 % of control | dose: 400.0 mg/kg/injection, schedule: Q04DX002 (ip), vehicle: saline with Tween-80 91 % of control

CCCCCCCCCCCOCC(=O)O
inactive: dose: 50.0 mg/kg/injection, schedule: Q01DX009 (ip), vehicle: Klucel (hydroxypropylcellulose) (HPC) 98 % of control | dose: 100.0 mg/kg/injection, schedule: Q01DX009 (ip), vehicle: Klucel (hydroxypropylcellulose) (HPC) 92 % of control

OCCNC(Cc1ccccc1)c1c(O)ccc2ccccc12 (configuration not stated)
inactive: [1] 100 % of control | [2] 94 % of control | [3] 100 % of control

O=C(c1ccccc1)N1OC12CCCCC2
inactive: [1] 102 % of control | [2] 99 % of control

O=Ic1ccccc1
inactive: dose: 3.12 mg/kg/injection, schedule: Q01DX009 (ip), vehicle: saline with Tween-80 104 % of control | [7] 108 % of control | [8] 114 % of control | [9] 112 % of control | [10] 99 % of control

CN(N=O)C(=O)NCC1OC(n2cnc3c(=O)[nH]cnc32)C(O)C1O (configuration not stated)
inactive: [14] 100 % of control | [15] 105 % of control | [16] 121 % of control

Clc1ccc(-c2ncnc3c2Cc2ccccc2-3)cc1
inactive: dose: 100.0 mg/kg/injection, schedule: Q04DX003 (ip), vehicle: saline with Tween-80 104 % of control | dose: 200.0 mg/kg/injection, schedule: Q04DX003 (ip), vehicle: saline with Tween-80 100 % of control | dose: 400.0 mg/kg/injection, schedule: Q04DX003 (ip), vehicle: saline with Tween-80 104 % of control

O=C1c2ccncc2C(=O)N1CCO
inactive: dose: 60.0 mg/kg/injection, schedule: Q01DX005 (ip), vehicle: saline 103 % of control | dose: 120.0 mg/kg/injection, schedule: Q01DX005 (ip), vehicle: saline 104 % of control | dose: 240.0 mg/kg/injection, schedule: Q01DX005 (ip), vehicle: saline 101 % of control

COC(=O)C1(CC(=O)c2ccc(N3CCN(c4ccc(C(=O)CC5(C(=O)OC)NC(=S)NC(=O)C5C#N)cc4)CC3)cc2)NC(=S)NC(=O)C1C#N (configuration not stated)
inactive: dose: 7.5 mg/kg/injection, schedule: Q01DX005 (ip), vehicle: Klucel (hydroxypropylcellulose) (HPC) 96 % of control | dose: 15.0 mg/kg/injection, schedule: Q01DX005 (ip), vehicle: Klucel (hydroxypropylcellulose) (HPC) 99 % of control | dose: 30.0 mg/kg/injection, schedule: Q01DX005 (ip), vehicle: Klucel (hydroxypropylcellulose) (HPC) 98 % of control and 92 % of control

Cn1c2c(c(=O)c3ccccc31)CCC(C)(C)O2
inactive: [1] 100 % of control | [2] 91 % of control | [3] 98 % of control

Fc1ccc(-c2cc(-c3cc(-c4ccc(F)cc4)n[nH]3)[nH]n2)cc1
inactive: dose: 60.0 mg/kg/injection, schedule: Q01DX005 (ip), vehicle: Klucel + Tween-80 91 % of control | dose: 120.0 mg/kg/injection, schedule: Q01DX005 (ip), vehicle: Klucel + Tween-80 88 % of control | dose: 240.0 mg/kg/injection, schedule: Q01DX005 (ip), vehicle: Klucel + Tween-80 88 % of control

CCS1=C(C(C)=O)C(=O)OC(C)C1 (configuration not stated)
inactive: [14] 100 % of control | [15] 100 % of control | [16] 106 % of control

CCN(CC)CCNC(=O)C(=O)NCCN(CC)CC
inactive: [14] 97 % of control | [15] 99 % of control

COc1ccc2cc1Oc1ccc(cc1)CC1c3cc(c(OC)cc3CCN1C)Oc1c(O)c(OC)cc3c1C(C2)N(C)CC3 (configuration not stated)
inactive: dose: 15.0 mg/kg/injection, schedule: Q01DX009 (ip), vehicle: Klucel (hydroxypropylcellulose) (HPC) 95 % of control | dose: 30.0 mg/kg/injection, schedule: Q01DX009 (ip), vehicle: Klucel (hydroxypropylcellulose) (HPC) 93 % of control | dose: 60.0 mg/kg/injection, schedule: Q01DX009 (ip), vehicle: Klucel (hydroxypropylcellulose) (HPC) 97 % of control

CN1C(c2ccccc2)C2CCCC(C2O)C1c1ccccc1 (configuration not stated)
inactive: [11] 97 % of control | [12] 100 % of control | [13] 98 % of control
